Patent US20160303205A1, “Combination Therapies for Lysosomal Storage Diseases” (Washington University, priority 2015, published 2016)
Like-named read-outs stand apart in the source and are kept apart here.

Tests used:
Twitcher mice [1] = test: Lifespan of Twitcher mice (Kaplan-Meier survival); assay type: in vivo, mouse
Source text: Treated and untreated Twitcher mice as well as untreated controls were used in all experiments. […] The experimental and control animals were randomly assigned to groups for analysis at pre-determined time points (n=3-6 animals per time point) or for life span and behavioral analyses (n=10-14 animals per group). The number of animals per group was based on previous experience with this model and the specific assays as well as power calculations. Quantitative biochemical analyses (GALC activity, psychosine measurements, cytokine/chemokine levels) were performed in duplicate on tissues from 3-6 animals, depending on the assay. Semi-quantitative histomorphometry was performed on at least 3 representative sections per animal from at least 3 animals per group. The photography settings were kept constant for all images. Analysis of variance (ANOVA) was used for group comparisons with Bonferroni correction for pair-wise comparisons. Student's t-test was used to compare the means of two groups. Significant differences in life span were determined by log-rank test. […]
Animals were housed at Washington University School of Medicine. […] Genotypes were determined on postnatal day 1 by PCR as previously described (Sakai et al. 1996 J Neurochem 66:1118-1124; Lin et al., 2005 Molecular Therapy 12:422-430.). […]
Lifespan was recorded as the age of the animal on the date of death or sacrifice. […]

Twitcher mice [2] = conditions: Twitcher mouse; literature (LeVine 2000; Biswas and LeVine 2002); cited from earlier work

Structure (SMILES): N[C@H]1CONC1=O [L-cycloserine]
- median lifespan (Twitcher mice [1]): ~57 days
- median lifespan (Twitcher mice [1]; untreated Twitcher 39.5 d): 57 days
- lifespan (Twitcher mice [2]): ~57 days
